This note sets out measurements from patent publication EP1487791B1, “A NOVEL ANTIFUNGAL MOLECULE 2-(3,4-DIMETHYL-2,5-DIHYDRO-1H-PYRROL-2-YL)- METHYLETHYL PENTANOATE” (priority 2002, dated 2003).

The subject of this assay is A. fumigatus. Put plainly: Quantification of colony forming units in organs of infected mice. Type of assay: in vivo, Balb/C mice.
Description: In vivo efficacy of the compound against A. fumigatus infection was studied in the Balb/C mice of 6-8 weak of age of either sex, weighing 15-20 g each. The mice model of aspergillosis described by Dixon et al (1989), was used to study the effects of compound on in vivo infection of A. fumigatus.
The animals were housed in the micro-barrier cages on sterile bedding and fed ad libitum water and food. The mice were divided into 6 groups and each group contained 8-10 animals. The mice were infected experimentally with A. fumigatus. Three days prior to infection with conidia, mice were injected subcutaneously with 3 doses (250.0 mg/kg/day) of cortisone acetate in 400.0 µl of PBS. On the infection day, each mouse received 2x10^7 conidia by nasal instillation of a single droplet of conidial suspension. The animals of this model developed invasive aspergillosis and all the infected animals died within 4-6 days.
A. fumigatus (190/96) isolate was grown on Sabouraud dextrose agar plates at 37 °C for 4 days. The conidia were collected from the culture plates using PBS (pH 7.2) containing 0.05% Tween 80 (Sigma Chemicals) and the suspension was filtered through sterile glass wool. The conidia were pelleted by centrifugation at 2000 rpm and re-suspended in PBS, pH 7.2. The number of conidia, was counted and adjusted to 1x10^8 conidia/ml. The viability of the conidia was determined by plating the dilutions of suspensions on Sabouraud dextrose agar.
The dosing of the animals (cortisone treated and challenged) with compound in 6 different groups was initiated within 30 min after challenge with A. fumigatus conidia. Group I: The mice were treated orally with 7 doses of 25.0 mg/kg/day of the compound. Group II: The animals infected with A. fumigatus conidia were given 50.0 mg/kg/day of the compound for 7 days orally. Group III: The animals in this group were given 7 oral doses of 100.0 mg/kg/day of the compound. Group IV: In this group of animals, 7 oral doses of the compound (200.0 mg/kg/day) were given. Group V: The animals of this group were treated with 7 doses of 400.0 mg/kg/day orally over a period of 7 days. Group VI: The animals of this group acted as control and were treated orally with 7 doses of 400 µl PBS containing solvent.
(§1) The mice were kept under constant watch and those getting moribund, dying or survived up to 10 days were sacrificed. The autopsy was performed on the mice who had died to remove their organs for quantification of colony forming units (CFU). The lungs, livers and kidneys of the mice were removed aseptically, placed in sterile PBS (pH 7.2) and homogenized with teflon pestle mortar. The CFU in the animals were determined by plating 10 fold dilutions of organ homogenates on Sabouraud dextrose agar containing 0.05% triton X-100. The triton X-100 limited the colony size and thus greatly facilitated colony counting (Frosco, 1992). After an incubation for 48 h at 37 °C, colonies were counted and results were expressed as CFU per organ. The survival time and CFU indicating the fungal burden in various organs were considered
as §1, with “The survival time and CFU indicating the fungal burden in various organs were considered” left out

Where [1] appears, read: Group I, 25.0 mg/kg body weight oral.
Where [2] appears, read: Group II, 50.0 mg/kg body weight oral.
[3] abbreviates: Group III, 100.0 mg/kg body weight oral.
[4] abbreviates: Group IV, 200.0 mg/kg body weight oral.
Setting [5] is: Group V, 400.0 mg/kg body weight oral.

In the case of `CCCCC(=O)OC(C)CC1NCC(C)=C1C` (stereo not shown) [PC-1, 2-(3,4-dimethyl-2,5-dihydro-1H-pyrrol-2-yl)-1-methylethyl pentanoate], the “colony counts as compared to controls” value (400 mg/kg body weight, p < 0.001) was “reduced the colony counts significantly”. Besides, the “number of CFUs in the kidneys” value (100.0 to 400.0 mg/kg body weight) was “significant reduction”. For the same compound, the “CFU/Organs (Mean+ SD) Kidney” value is 1402.5+350.09 CFU/Organs under setting [1]; 1040.5+441.78 CFU/Organs under setting [2]; 733.3+394.69 CFU/Organs under setting [3]; 683.3+352.67 CFU/Organs under setting [4]; 225.0+157.39 CFU/Organs under setting [5]. In addition, the “CFU/Organs (Mean+ SD) Liver” value is listed as 255.0+72.45 CFU/Organs under setting [1]; 290.6+135.58 CFU/Organs under setting [2]; 216.7+108.97 CFU/Organs under setting [3]; 225.0+91.85 CFU/Organs under setting [4]; 165.0+117.84 CFU/Organs under setting [5]. Also, the “CFU/Organs (Mean+ SD) Lung” value under setting [1] was 907.5+246.09 CFU/Organs; the “CFU/Organs (Mean+ SD) Lung” value under setting [2] is 900.0+230.29 CFU/Organs; the “CFU/Organs (Mean+ SD) Lung” value under setting [3] is 650.1+171.85 CFU/Organs; the “CFU/Organs (Mean+ SD) Lung” value under setting [4] is 525.0+251.56 CFU/Organs; the “CFU/Organs (Mean+ SD) Lung” value under setting [5] is listed as 180.0+127.75 CFU/Organs. In addition, the “effect on the CFUs in the lung tissue” value (doses of 25.0 and 50.0 mg/kg body weight) is “did not have any effect”. For the setting “liver”, the “effect of the compound on CFUs in liver” value was “very less effect”.
